In assay [1] the test system is human artery wall cell cocultures. As to the kind of experiment: LDL oxidation by human artery wall cell cocultures (lipid hydroperoxides). It is filed as cell-based. Here is the method: (§1) The wells of the microtiter plates were treated with 0.1% gelatin at 37° C. overnight. HASMC were added at a confluent density of 1×10^5 cells/cm^2. Cells were cultured for 2 d at which time they had covered the entire surface of the well and had produced a substantial amount of extracellular matrix. HAEC were subsequently added at 2×10^5 cells/cm^2 and were allowed to grow forming a complete monolayer of confluent HAEC in 2 d. In all experiments, HAEC and autologous HASMC (from the same donor) were used at passage levels of four to six.
(§2) In general, the cocultures were treated with native LDL (250 μg/ml) in the absence or presence of HDL for 8 h. The supernatants were collected and used for determination of lipid hydroperoxide levels. The cocultures were subsequently washed and fresh culture medium 199 (M199) without any additions was added and incubated for an additional 8 hrs. This allowed the collection of monocyte chemotactic activity released by the cells as a result of stimulation by the oxidized LDL. At the end of incubation, the supernatants were collected from cocultures, diluted 40-fold, and assayed for monocyte chemotactic activity. Briefly, the supernatant was added to a standard Neuroprobe chamber (NeuroProbe, Cabin John, Md.), with monocytes added to the top. The chamber was incubated for 60 min at 37° C. After the incubation, the chamber was disassembled and the nonmigrated monocytes were wiped off. The membrane was then air dried and fixed with 1% glutaraldehyde and stained with 0.1% Crystal Violet dye. The number of migrated monocytes was determined microscopically and expressed as the mean±SD of 12 standardized high power fields counted in quadruple wells.
Statistical significance was determined by model 1 ANOVA. […] Significance is defined as p<0.05.
Human artery wall cocultures were preincubated with ETYA at a concentration of 10^−8 mol/L or with cinnamyl-3,4-dihydroxy-α-cyanocynamate (CDC, from Biomol) at a concentration of 10^−8 mol/L in M199 containing 10% LPDS for 30 min. The cocultures were then washed and LDL was added at 250 μg/ml and incubated for 8 hrs.

Assay [2] shares this test system. In words: Monocyte chemotaxis assay on coculture conditioned medium. It is filed as cell-based. As for the experimental part:
as §1
Monocytes were isolated using a modification of the Recalde method as previously described (Fogelman et al. (1988) J. Lipid Res. 29: 1243-1247) from the blood of normal volunteers after obtaining written consent under a protocol approved by the human research subject protection committee of the University of California, Los Angeles.
as §2

Another assay has as its system LDL. As to the kind of experiment: Removal of 13-HPODE and 15-HPETE from LDL (RP-HPLC, mass spectrometry). Also noted: species or system human. Conditions: LDL 1 mg/ml with apo A-I 100 μg/ml, 2 hrs. Here is the method:
FIG. 6, panels A through H, illustrate the removal of 13-HPODE and 15-HPETE by apo A-I from LDL. Freshly isolated LDL (1 mg/ml) was incubated alone (LDL sham), or with apo A-I (100 μg/ml) in M199 for 2 hrs, with gentle mixing. For controls, 100 μg/ml apo A-I was incubated alone in M 199 for 2 hrs (A-I Sham, Panel A and Panel E) or 1 mg/ml freshly isolated LDL was incubated alone in M 199 for 2 hrs (LDL Sham, Panel B and Panel F) with gentle mixing at 37° C. The LDL and apo A-I were then re-isolated by centrifugation using Millipore molecular weight cut-off filters (100 kDa). Lipids were extracted from apo A-I and from LDL and were analyzed by reverse phase HPLC.
High performance reverse phase liquid chromatography (RP-HPLC) was conducted according to the methods of Ames and colleagues (Yamamoto and Ames (1987) Free Rad. Biol. Med. 3: 359-361), Kambayashi and colleagues (Kambayashi et al. (1997) J. Biochem. 121: 425-431), and Alex Sevanian (personal communication). In brief, the analyses were performed by injecting isolated lipids resuspended in mobile solvent onto the column and eluting with a flow rate of 1.0 ml/min. Detection of fatty acid oxidation products was performed by UV absorbance with a diode array detector (Beckman Instruments) scanning from 200 to 350 nm or with an evaporative light scattering detector (SEDEX 55, France). […]

A further assay relates to humans. In words: Infusion of apo A-I into humans, LDL isolated and tested on human artery wall cocultures. The assay is classed as in vivo.
The test system of assay [3] is fibroblasts over expressing 15-LO. As to the kind of experiment: Removal of 13(S)-HPODE by apo A-I from fibroblasts over expressing 15-LO. The assay is classed as cell-based. Conditions: apo A-I 100 μg/ml, 3 hrs. Here is the method: Fibroblasts that were transfected with vector alone or cells that over expressed 15-LO were a generous gift of Drs. Joe Witztum and Peter Reaven. In the present experiments, the fibroblasts were incubated with or without 100 μg/ml apo A-I. Following 3 hrs of incubation at 37° C. with gentle mixing, the culture supernatants were removed, apo A-I was separated by FPLC and the level of hydroperoxides determined in lipid extracts of the culture supernatants and in lipid extracts of apo A-I.

Assay [4] relates to paraoxonase. Conditions: mice, six hours after injection.
For assay [5], the system named is paraoxonase. Conditions: humans, six hours after the infusion vs two hours before.
Description: After obtaining written informed consent and with IRB approval from St Bartholomew's and the Royal London School of Medicine and Dentistry, apo A-I/phosphotidylcholine discs were infused at a dose of 40 mg apo A-I /kg of body weight over four hours using the materials and protocol described by Nanjee et al (Nanjee et al. (1999) Arterioscler. Thromb. Vascul. Biol. 19: 979-989; Nanjee et al. (1996) Arteroscler. Thromb. Vascul. Biol. 16: 1203-1214) into six healthy male subjects. […] Plasma was prepared 2 hrs before and 6 hrs following the infusion, was cryopreserved as described (Havel et al. (1955) J. Clin. Invest. 43: 1345-1353) and LDL was isolated by FPLC in the authors' lab in Los Angeles before the experiments. LDL islated from plasma according to this protocol functions in a manner that is indistinguishable from freshly isolated LDL in vitro and in vivo (Rumsey et al. (1994) J. Lipid Res. 35: 1592-1598).
Paraoxonase (PON) activity was measured as previously described (Gan et al. (1991) Drug Metab. Dispos. 19: 100-106). Statistical significance was determined by model 1 ANOVA. […] Significance is defined as p<0.05.
A further assay has as its system C57BL/6 mice. As to the kind of experiment: Injection into mice, LDL isolated and tested on human artery wall cocultures.

Read-outs that look alike come from different tables or passages of the source. Some results are limits rather than exact numbers.

These results are taken from patent publication US7250304B2, “Functional assay of high-density lipoprotein” (The Regents of the University of California, priority 2000, dated 2007).

Consider “apo A-I: Human apo A-I from Sigma, major apolipoprotein of HDL; infused into humans as apo A-I/phosphatidylcholine discs”, for which the “oxidation by artery wall cells of mouse LDL after apo A-I treatment” value in assay [1] (LDL from C57BL/6 and C3H/HeJ mice on chow, incubated in vitro with human apo A-I 100 μg/ml) was “rendered resistant to oxidation”. Besides, the “protection of LDL against oxidation on co-incubation” value in assay [1] (apo A-I 50 μg/ml co-incubated with cocultures and LDL 250 μg/ml) is on record as “did not protect the LDL against oxidation”. In assay [1] (cocultures incubated 8 hrs with agent, agent removed before LDL 250 μg/ml), the “ability of pretreated artery wall cocultures to oxidize LDL” value was “not able to oxidize the LDL”. The “oxidation by artery wall cells of LDL pre-incubated with the agent” value in assay [1] (human LDL incubated with agent, re-isolated, then cocultures 8 hrs) is “rendered the LDL resistant to oxidation”. For the same substance, the “LDL-induced monocyte chemotaxis in pretreated cocultures” value in assay [2] (cocultures incubated 8 hrs with agent, agent removed before LDL) is reported as “monocyte chemotaxis was prevented”. Moreover, in assay [2] (human LDL incubated with agent, re-isolated, then cocultures), the “LDL-induced monocyte chemotactic activity of LDL pre-incubated with the agent” value is given as “prevented LDL-induced monocyte chemotaxis”. Moreover, in the assay on LDL, the “removal of HPODE and HPETE from freshly isolated LDL” value is reported as “effectively removed”. Further, the “resistance of human LDL to oxidation by artery wall cells after infusion” value in the assay on humans (apo A-I/phosphatidylcholine discs 40 mg apo A-I/kg over 4 hrs, six hours after vs two hours before, six out of six subjects) is “much more resistant to oxidation”. Also, in the assay on humans (humans), the “time after infusion at which LDL was rendered resistant to oxidation” value is ≤ 6 h. The “13-HPODE equivalents in lipid extracts of apo A-I, cells over expressing LO vs control cells” value in assay [3] came to 5.1 fold. Further, the “PON activity in plasma and HDL, increase” value in the assay on paraoxonase [4] and in the assay on paraoxonase [5] was “approximately 20%” in each case. Further, in the assay with C57BL/6 mice, the “time after injection at which LDL was rendered resistant to oxidation” value was ≤ 3 h. Besides, in the assay on C57BL/6 mice (100 μg injected), the “persistence of LDL resistance to oxidation” value is recorded as “up to 24 hours”.
